Experimental data as given in patent US20220062268A1, “PHARMACEUTICAL COMPOSITION FOR THE TREATMENT OF PARKINSON'S DISEASE” (Teva Pharmaceuticals International GmbH, priority 2014, published 2022).
“Also recorded” adds a separate entry of the source. Like-named read-outs stand apart in the source and are kept apart here.

Tests used:
[1] = test system: MPTP monkey model of Parkinson's disease; assay: MPTP monkey model of Parkinson's disease: tremor and Good ON; format: in vivo, Macaca fascicularis; conditions: MPTP macaques; DP-102 versus same dose of L-DOPA; tremor score summed over 3 hours post dose; FIG. 1
Procedure: Macaques (Macaca fascicularis) were rendered parkinsonian by repeated daily injections of MPTP hydrochloride (0.2 mg/kg, i.v.) until parkinsonian signs appeared. The degree of parkinsonism was assessed using a validated parkinsonian macaque clinical scale which rates the following symptoms of parkinsonian disability: tremor (0-3), variations in the general level of activity (0-3), body posture (flexion of spine; 0-3), vocalization (0-2), freezing (0-2), frequency of arm movements (reaching for food, 0-3 for each upper limb), and rigidity (0-3 for each upper limb).
The maximum parkinsonian disability score was 25. MPTP administration was stopped when a score of 6 was reached on the above scale (usually day 13-17). The macaques were left untreated, for a minimum of 6 weeks, until their parkinsonism became stable.
This study assessed the test item in a within-subject design with an intra-individually escalating dosage regimen.
Eight animals were randomly assigned to one of two treatment sequence groups (1: AB, 2: BA). […]
Tremor was assessed for 3 hours post L-DOPA administration for 10 minutes every 30 minutes, by post hoc analysis of video recordings by a trained assessor blinded to the study treatments. […]
The anti-parkinsonian action was evaluated based upon the “ON” state of the animals. […]

Parkinson models = conditions: cited from earlier work
striatal dopamine = conditions: compared to L-DOPA, cited from earlier work
[2] = neutral pH; cited from earlier work
late Parkinson's disease = conditions: cited from earlier work

Compound: [2H]C([2H])(c1ccc(O)c(O)c1)[C@]([2H])(N)C(=O)O [DP-102, L-2-Amino-2,3,3-trideutero-3-(3,4-dihydroxyphenyl) propionic acid]
- tremor in relation to Good ON [1]: less tremor at more Good ON
- equi-effective dose compared to L-DOPA (Parkinson models; in vivo): about 60%
- motor activity (Parkinson models; several Parkinson models, compared to L-DOPA): improved motor activity compared to L-DOPA
- striatal dopamine levels (striatal dopamine; listed as α,β,β-D3-L-DOPA): higher longer-lasting striatal dopamine levels than L-DOPA; also recorded: increase and prolong the output of striatal dopamine significantly more than L-DOPA

Compound: N[C@@H](Cc1ccc(O)c(O)c1)C(=O)O [L-DOPA, (2S)-2-amino-3-(3,4-dihydroxyphenyl)propanoic acid, reference compound]
- solubility [2]: poorly dissolved at neutral pH
- tremor in relation to Good ON [1]: higher or observed at lower Good ON levels

Compound: CN1CCc2cccc3c2[C@H]1Cc1ccc(O)c(O)c1-3 [apomorphine]
- dose of oral L-DOPA under infused apomorphine (late Parkinson's disease; daily dose of infused apomorphine 72.00±21.38 mg, reduced from 989.4±420.1 mg/day (Ruiz et al.)): 663.8 ± 403.2 mg/day
- reduction of L-DOPA (late Parkinson's disease; mean daily apomorphine dose of 75.2 mg (Katzenschlager et al.)): 55%

Compound: [2H][C@@H](c1ccc(O)c(O)c1)[C@]([2H])(N)C(=O)O [α,β-D2-L-DOPA, S/S-2-amino-2,3-dideutero-3-(3,4-dihydroxyphenyl) propionic acid]
- striatal dopamine levels (striatal dopamine): increase and prolong the output of striatal dopamine significantly more than L-DOPA; also recorded: highest striatal dopamine concentrations
